Broadly, the Log P is a log measure of how a compound divides between an organic and an aqueous phase.

Data set [1] can be described thus: log P measured by the procedure of Donovan and Pescatore, internally standardized with toluene and triphenylene. It is filed as physicochemical. As for the experimental part: Compositions of herbicides were prepared using melts of mixtures of nonionic block copolymer and ethoxylated surfactants. Specifically, tristyrylphenol etoxylate (Soprophor BSU, Rhodia) was used in combination with Pluronic P123 (PEO20-PPO69-PEO20). The list of the herbicides and corresponding log P values (the log P values were measured according procedure described by Donovan and Pescatore, J Chromatography A 2002, 952, 47-61) are presented in Table 22. All log P values were measured at pH 7, except for clethodim, measured at pH 2. First, a stock blend of Pluronic P123 and Soprophor BSU was prepared by melting together 50 g of Pluronic P123 with 50 g of Soprophor BSU at 70° C. to form a clear, homogeneous melt. Composition of the […]

For data set [2] the following is noted: as referred in The Pesticide Manual, 11th edition (Table 18); cited from earlier work.
A short description of data set [3]: Stability and appearance of aqueous dispersions on storage. It is filed as physicochemical. The note with it: Table 14, microblend with Pluronic P123:Soprophor BSU 1:1, storage at room temperature.
Data set [4] can be described thus: Particle size of aqueous dispersions by dynamic light scattering. The class given is physicochemical. As to conditions: Table 14, microblend with Pluronic P123:Soprophor BSU 1:1, insecticide 4.5 mg/ml, after 2 hours, Nanotrac 250. As for the experimental part:
The suspensions were shaken for 40 h at room temperature followed by centrifugation for 10 min at 13,000 rpm. The concentration of Bifenthrin in the supernatants was determined by UV-spectroscopy. For this purpose, standard solutions containing from 0 to 0.58 mg/ml of Bifenthrin in ethanol were prepared using a stock solution of Bifenthrin in acetonitrile with concentration of 8.7 mg/ml. These solutions were used to obtain a calibration curve by measuring an absorbance at 260 nm using Perkin-Elmer Lambda 25 spectrophotometer. […]
Compositions of insecticides were prepared using melts of mixtures of nonionic block copolymer and ethoxylated surfactants. Specifically, tristyrylphenol etoxylate (Soprophor BSU, Rhodia) was used in combination with Pluronic P123 (PEO20-PPO69-PEO20). 250 mg of Pluronic P123 were mixed with 250 mg of Soprophor BSU, and 50 mg of fine powder of the insecticide, and were melted together for 1 hour. The composition of the copolymer/surfactant mixture was P123:Soprophor=1:1 by weight. The feeding copolymer/surfactant:insecticide ratio was 10:1. The melted compositions were cooled down to room temperature. […] 50 mg of the composition was rehydrated in 1 ml of water upon shaking for 1 hour. The total concentration of copolymer/surfactant components in the mixture was ca. 4.6%. The targeted content of insecticide in the microblend dispersion was 4.5 mg/ml.

The mark [5] stands for this setting: pH = 2, based on logP assigned to toluene 2.605 and triphenylene 6.266.
Setting [6] is: pH = 7, based on logP assigned to toluene 2.605 and triphenylene 6.266.
The mark [7] stands for this setting: pH 2, pH = 2, based on logP assigned to toluene 2.605 and triphenylene 6.266, read-out: logP, Average.
The mark [8] stands for this setting: pH 7, measured at pH 7 (Table 22), read-out: Log P.
[9] abbreviates: pH 7, pH = 7, based on logP assigned to toluene 2.605 and triphenylene 6.266, read-out: logP, Average.

Read-outs that look alike come from different tables or passages of the source.

For `CCCCOCN(C(=O)CCl)c1c(CC)cccc1CC` [Butachlor], the chromatographic logP in data set [1] (pH 2, logP, Average) was found to be 4.12; in data set [1] (pH 7, Log P), 4.15; in data set [1] (pH 7, logP, Average), 4.15.
Turning to Dinocap, the lipophilicity (Log P) in data set [1] (measured at pH 7 (Table 22)) is listed as 5.43. Also, the “logP, Average” value stood at 5.457 in data set [1] (setting [5]) and 5.428 in data set [1] (setting [6]).
For the compound `C#CCOC(=O)[C@@H](C)Oc1ccc(Oc2ncc(Cl)cc2F)cc1` [Clodinofop-Propargyl], the “logP, Average” value in data set [1] (setting [5]) is reported as 4.519; in data set [1] (setting [6]) it was 4.522.
Turning to `CCCCCCCC(=O)Oc1c(I)cc(C#N)cc1I` [Ioxynil Octanoate], the chromatographic logP in data set [1] (setting [7]) turned out to be 5.67; in data set [1] (setting [8]), 5.6; in data set [1] (setting [9]), 5.6.
As to `N#CC(CCc1ccc(Cl)cc1)(Cn1cncn1)c1ccccc1` (stereo not drawn) [Febenuconazole], the “logP, Average” value in data set [1] (setting [5]) is listed as 3.716; in data set [1] (setting [6]) it was 3.730.
In the case of `CCC(CC)Nc1c([N+](=O)[O-])cc(C)c(C)c1[N+](=O)[O-]` [Pendimethalin], the “Log P” value in data set [2] is 5.18.
For the compound `CCCN(CCC)c1c([N+](=O)[O-])cc(C(F)(F)F)cc1[N+](=O)[O-]` [Trifluran], the chromatographic logP in data set [1] (setting [8]) amounted to 5.08. The figures for the “logP, Average” value in data set [1] (setting [5]) and in data set [1] (setting [6]) were 5.108 and 5.084, respectively.
On to `CCCOC/C(=N\c1ccc(Cl)cc1C(F)(F)F)n1ccnc1` [Triflumizole], for which the chromatographic logP in data set [1] (pH 2, logP, Average) was 2.6; in data set [1] (setting [9]) it was 3.89.
For the compound `OC(Cn1cncn1)(c1ccc(F)cc1)c1ccccc1F` (stereo not drawn) [Flutriafol], the chromatographic logP was found to be 2.12 in data set [1] (pH 2, logP, Average) and 2.04 in data set [1] (pH 7, logP, Average).
For Abamectin, in data set [3], the “Dispersion appearance in 24 hours” value is “clear”. The “Particle size (nm)” value in data set [4] amounted to 13 nm.
With `N#Cc1nn(-c2c(Cl)cc(C(F)(F)F)cc2Cl)c(N)c1[S+]([O-])C(F)(F)F` (stereo not drawn) [Fipronil], the “Dispersion appearance in 24 hours” value in data set [3] is recorded as “clear”. In data set [4], the “Particle size (nm)” value is on record as 13 nm.
As to `CCCCC(C#N)(Cn1cncn1)c1ccc(Cl)cc1` (stereo not drawn) [Myclobutanil], the chromatographic logP in data set [1] (setting [7]) was found to be 2.44; in data set [1] (setting [9]) it was 2.8.
In the case of `CCCCOC(=O)C(C)Oc1ccc(Oc2ccc(C(F)(F)F)cn2)cc1` (stereo not drawn) [Fluazifop-butyl], the chromatographic logP in data set [1] (pH 2, logP, Average) is 4.44; in data set [1] (pH 7, Log P) it was 4.42; in data set [1] (pH 7, logP, Average), 4.42.
For the compound `CO/C=C(/C(=O)OC)c1ccccc1Oc1cc(Oc2ccccc2C#N)ncn1` [Azoxystrobin], the “logP, Average” value in data set [1] (setting [5]) worked out at 3.074; in data set [1] (setting [6]) it was 3.050.
For `CC1(C)C(C=C(Cl)Cl)C1C(=O)OC(C#N)c1cccc(Oc2ccccc2)c1` (stereo not drawn) [Cypermethrin], the “Dispersion appearance in 24 hours” value in data set [3] is “clear”. Besides, in data set [4], the “Particle size (nm)” value is on record as 14 nm.
Turning to `CC(C)(C)C(O)(CCc1ccc(Cl)cc1)Cn1cncn1` (stereo not drawn) [Tebuconazole], the results for the chromatographic logP in data set [1] (setting [7]) and in data set [1] (setting [9]) were 3.44 and 3.49, respectively.
`CON(C)C(=O)Nc1ccc(Cl)c(Cl)c1` [Linuron]: in data set [2], the “Log P” value was 3.00.
`CCOC(=O)C(Cl)Cc1cc(-n2nc(C)n(C(F)F)c2=O)c(F)cc1Cl` (stereo not drawn) [Carfentrazone-ethyl]: the “Log P” value in data set [2] is listed as 3.36. Further, the chromatographic logP was 3.99 in data set [1] (setting [7]) and 4.02 in data set [1] (setting [9]).
With `CC1(C)CON(Cc2ccccc2Cl)C1=O` [Clomazone], in data set [2], the “Log P” value is 2.5.
On to `COC(=O)N(OC)c1ccccc1COc1ccn(-c2ccc(Cl)cc2)n1` [Pyraclostrobin], for which the chromatographic logP in data set [1] (setting [7]) came to 4.53; in data set [1] (setting [9]), 4.49.
Taken in the same sequence, the figures for `O=[N+]([O-])c1c(Cl)c(Cl)c(Cl)c(Cl)c1Cl` [Pentachloronitrobenzene] were 5.39 and 5.34.
Taken in the same sequence, the figures for `O=[N+]([O-])c1cc(C(F)(F)F)c(Cl)c([N+](=O)[O-])c1Nc1ncc(C(F)(F)F)cc1Cl` [Fluazinam] were 5.03 and 4.72.
On to `CCC(CC)Nc1c([N+](=O)[O-])cc(C)c(C)c1[N+](=O)[O-]` [Prowl], for which the “logP, Average” value in data set [1] (setting [5]) stood at 5.108; in data set [1] (setting [6]), 5.101.
As for `COP(=S)(OC)Oc1c(Cl)cc(C)cc1Cl` [Tolclofos-methyl], the chromatographic logP in data set [1] (pH 2, read-out: logP, Average) amounted to 4.42; in data set [1] (pH = 7, based on logP assigned to toluene 2.605 and triphenylene 6.266, read-out: logP, Average), 4.42.
Consider `O=C(Nc1ccc(F)cc1F)c1cccnc1Oc1cccc(C(F)(F)F)c1` [Diflufenican], for which the chromatographic logP in data set [1] (setting [7]) was 4.81; in data set [1] (setting [8]) it was 4.76; in data set [1] (setting [9]), 4.76.
With `CCCC1COC(Cn2cncn2)(c2ccc(Cl)cc2Cl)O1` (stereo not drawn) [Propiconazole], the figures for the chromatographic logP in data set [1] (setting [7]) and in data set [1] (setting [9]) were 3.3 and 3.29, respectively.
Turning to `FC(F)(F)c1ccc(OCCCOc2c(Cl)cc(OCC=C(Cl)Cl)cc2Cl)nc1` [Pyridalyl], the “Dispersion appearance in 24 hours” value in data set [3] was “clear”. Further, the “Particle size (nm)” value in data set [4] worked out at 14 nm.
For the compound `CCSC(C)CC1CC(=O)C(/C(CC)=N/OC/C=C/Cl)=C(O)C1` (stereo not drawn) [Clethodim], the chromatographic logP in data set [1] (pH 2, measured at pH 2 (Table 22), read-out: Log P) came out at 4.24; in data set [1] (setting [7]), 4.25; in data set [1] (setting [9]), 0.813.
For the compound Spinosad, in data set [3], the “Dispersion appearance in 24 hours” value is listed as “clear”. For the same compound, the “Particle size (nm)” value in data set [4] was 13 nm.
On to `CCCCC(O)(Cn1cncn1)c1ccc(Cl)cc1Cl` (stereo not drawn) [Hexaconazole], for which the chromatographic logP in data set [1] (pH 2, logP, Average) is 3.35; in data set [1] (pH 7, logP, Average), 3.31.
Turning to `CSC(=O)c1c(C(F)F)nc(C(F)(F)F)c(C(=O)SC)c1CC(C)C` [Dithiopyr], the chromatographic logP was determined as 4.32 in data set [1] (setting [7]), 4.28 in data set [1] (setting [8]) and 4.28 in data set [1] (setting [9]).
For the compound Trisulfuron-methyl, the “logP, Average” value in data set [1] (setting [5]) is listed as 3.542; in data set [1] (setting [6]), 0.510.
For `CCCSP(=O)(OCC)Oc1ccc(Br)cc1Cl` (stereo not drawn) [Profenofos], the “Dispersion appearance in 24 hours” value in data set [3] is “clear”. Moreover, the “Particle size (nm)” value in data set [4] is given as 13 nm.
As to `COC[C@H](C)N(C(=O)CCl)c1c(C)csc1C` [Dimethenamid-P], the “Log P” value in data set [2] is recorded as 2.05.
Consider `CCCN(CCC)c1c([N+](=O)[O-])cc(C(F)(F)F)c(N)c1[N+](=O)[O-]` [Prodiamine], for which the “Log P” value in data set [2] is recorded as 4.10.
`N#Cc1c(Cl)c(Cl)c(Cl)c(C#N)c1Cl` [Chlorthalonil]: the “logP, Average” value amounted to 4.357 in data set [1] (setting [5]) and 4.234 in data set [1] (setting [6]).
For the compound `Cc1ccc(N(SC(F)(Cl)Cl)S(=O)(=O)N(C)C)cc1` [Tolyfluanid], the figures for the “logP, Average” value in data set [1] (setting [5]) and in data set [1] (setting [6]) were 3.934 and 3.930, respectively.

The values are drawn from patent publication US20090137667A1, “Pesticide Delivery System” (priority 2006, published 2009).
